{
  "source": "paper PMC7835950",
  "about": "(Frontiers in Chemistry, 2021)",
  "molecules": {"B1": {"name": "OADH (Rattus norvegicus) (protein)", "chain": "MASATVAAAGRALRRAVPLLRRSYQTERGVYGYRPRKAGSGEPRGDRARPSVDHGLARLVTVYCEHGHKAAQINPLFPGQALLDTVPEIQALVQTLQGPFTTTGLLNMGKEEASLEEVLAYLNHIYCGPISIETAQLQSQEEKDWFARRFEELKKETFTTEERKHLSKLLLESQEFDHFLATKFATVKRYGGEGAESMMGFFHELLKLSAYGGITDIIIGMPHRGRLNLLTGLLQLPPELMFRKMRGLSEFPENVAAIGDVLSHLTSSVDLDFGAHRPLHVTMLPNPSHLEAINPVAVGKTRGRQQSQEDGDYSPNGSAQPGDKVICLQVHGDASFCGQGIVLETFTLSNLPHFRIGGSIHLIVNNQLGYTTPAERGRSSLYSSDIGKLVGCAIIHVNGDSPEEVVRATRLAFEYQRQFRKDVIIDLLCYRQWGHNELDEPFFTNPVMYKIIRARKSIPDTYAEHLIASGLMTQEEVSDIKASYYAKLNGHLANVAHYSPPAPHLQARWQGLVQPAACVTTWDTGVPLELLRFVGVKSVEVPEELQLHSHLLKMYVQSRMEKVKNGTNLDWATAETLALGSLLAQGFNVRLSGQDVGRGTFSQRHAMVVCQNTDDVYIPLNHMDPNQKGFLEVSNSPLSEEAVLGFEYGMSIESPKLLPLWEAQFGDFFNGAQIIFDTFISGGEAKWLLQSGLVILLPHGYDGAGPDHSSCRIERFLQMCDSAEEGVDSDTVNMFVVHPTTPAQYFHLLRRQMMRNFRKPLIVASPKMLLRYPVAVSTLEEMAPGTAFKPVIGDSSVDPKNVKTLIFCSGKHFYALLKQRESLGAKKRDFAIIRLEELCPFPLDSLQQEMGKYKHVQDIIWSQEEPQNMGPWSFVYPRFEKQLACKLRLVSRPPLPAPAVGIGTVHQQQHEAILFKTFTS"}, "B2": {"name": "OGDH (Rattus norvegicus) (protein)", "chain": "SAPVAAEPFLSGTSSNYVEEMYCAWLENPKSVHKSWDIFFRNTNAGAPPGTAYQSPLSLSRSSLATMAHAQSLVEAQPNVDKLVEDHLAVQSLIRAYQIRGHHVAQLDPLGILDADLDSSVPADIISSTDKLGFYGLHESDLDKVFHLPTTTFIGGQEPALPLREIIRRLEMAYCQHIGVEFMFINDLEQCQWIRQKFETPGIMQFTNEEKRTLLARLVRSTRFEEFLQRKWSSEKRFGLEGCEVLIPALKTIIDMSSANGVDYVIMGMPHRGRLNVLANVIRKELEQIFCQFDSKLEAADEGSGDMKYHLGMYHRRINRVTDRNITLSLVANPSHLEAADPVVMGKTKAEQFYCGDTEGKKVMSILLHGDAAFAGQGIVYETFHLSDLPSYTTHGTVHVVVNNQIGFTTDPRMARSSPYPTDVARVVNAPIFHVNSDDPEAVMYVCKVAAEWRNTFHKDVVVDLVCYRRNGHNEMDEPMFTQPLMYKQIRKQKPVLQKYAELLVSQGVVNQPEYEEEISKYDKICEEAFTRSKDEKILHIKHWLDSPWPGFFTLDGQPRSMTCPSTGLEEDILTHIGNVASSVPVENFTIHGGLSRILKTRRELVTNRTVDWALAEYMAFGSLLKEGIHVRLSGQDVERGTFSHRHHVLHDQNVDKRTCIPMNHLWPNQAPYTVCNSSLSEYGVLGFELGFAMASPNALVLWEAQFGDFNNMAQCIIDQFICPGQAKWVRQNGIVLLLPHGMEGMGPEHSSARPERFLQMCNDDPDVLPNLQEENFDISQLYDCNWIVVNCSTPGNFFHVLRRQILLPFRKPLIVFTPKSLLRHPEARTSFDEMLPGTHFQRVIPEDGPAAQNPDKVKRLLFCTGKVYYDLTRERKARDMAEEVAITRIEQLSPFPFDLLLKEAQKYPNAELAWCQEEHKNQGYYDYVKPRLRTTIDRAKPVWYAGRDPAAAPATGNKKTHLTELQRFLDTAFDLDAFKKFS", "notes": "the tissue fractions with the complexes enriched to a degree allowing for a robust detection of the enzymatic activities, have been used; from tissue; host or cells: rat liver"}},
  "key": {"[1]": {"experiment": "Stability of the phosphonates and their esters during storage, by NMR", "assay_type": "physicochemical", "conditions": "for decrease of purity: pure oil, room temperature, argon atmosphere, 6 months", "method": "Stability of the purified phosphonates and their esterified precursor was analyzed by NMR after storage under the inert (pure argon) or ambient (air) atmosphere and in water solutions. ^1H, ^13C and ^31P NMR spectra were recorded at 400, 100.6, and 161.9 MHz, respectively with a Bruker Avance 400 spectrometer. Chemical shifts were calculated using D2O or CDCl3 as reference standards for trisodium salts and triesters, respectively. The spectra of the phosphonates and their esters before and after storage are shown in Supplementary Figures 1, 2 correspondingly."}, "[2]": {"substrate": "O=C(O)CCCC(=O)C(=O)O", "experiment": "OADH reaction catalyzed by the enzyme preparation from rat liver, low [OA] (high-affinity OA sites)", "assay_type": "biochemical", "conditions": "other: liver preparation, pH 7.0", "method": "(§1) Enzymes catalyzing OGDH and OADH reactions were enriched from rat hearts and livers using polyethylene glycol precipitation, as previously described (Artiukhov et al., [2020]).\n(§2) The enzyme activities were assayed in the medium (pH 7.0) containing 50 mM MOPS, 1 mM ThDP, 1 mM MgCl2, 1 mM CaCl2, 1 mM dithiothreitol 0.15 mM Coenzyme A, 0.25 mM NAD^+ and various concentrations of 2-oxo substrates (0–10 mM OG or OA) and their phosphonate analogs (0–5,000 μM SP, GP, or AP). Reactions were started by addition of the enzyme preparations to the assay media. The amount of enzyme preparations (0.074 mg protein for the preparation from liver and 0.023 mg protein for the preparation from heart) were chosen to induce the lowest reliably measured reaction rate (ΔA340 = 0.001/min) at 0.01 mM OA without the phosphonates.\n(§3) Reaction rates were calculated from linear parts of the product accumulation curves (up to 10 min, dependent on the reaction rate), excluding the initial region, where mixing the reagents and solubilization of the preparation affected the optical density. […]\n(§4) The kinetic data were also analyzed by linear regression, using the known methods of the linearization of the Michaelis-Menten equation in the Lineweaver-Burk ( 1/a=1/Amax(1+Km/[S]) ) and Eadie-Hofstee ( a=Amax−Kmv/[S] ) coordinates. […]"}, "[3]": {"substrate": "O=C(O)CCCC(=O)C(=O)O", "experiment": "OADH reaction (OA saturation) catalyzed by the enzyme preparation from rat heart", "assay_type": "biochemical", "conditions": "other: heart preparation; pH 7.0", "method": "as §1, §2, §3, §4"}, "[4]": {"substrate": "O=C(O)CCCC(=O)C(=O)O", "experiment": "OADH reaction catalyzed by the enzyme preparation from rat liver, high [OA] (low-affinity OA sites)", "assay_type": "biochemical", "conditions": "other: liver preparation, pH 7.0", "method": "as §1, §2, §3, §4"}, "[5]": {"substrate": "O=C(O)CCC(=O)C(=O)O", "experiment": "purified protein, by the assay type", "conditions": "pH 7.0"}, "[6]": {"conditions": "0.2 M aqueous solution, 5 days of shelf storage, 31P NMR"}},
  "note": "Several values for one entry are separate records, joined by “and”; a condition that tells them apart may be missing. Equal values may be shown once.",
  "data": [
    {"molecule": "CCOC(=O)CCCC(=O)P(=O)(OCC)OCC", "note": "[TEGP, triethyl glutaryl phosphonate]", "values": [
      {"measurement": "compound preserved", "setting": "[1]; [6]", "value": "about 80%"},
      {"measurement": "decrease of purity", "setting": "[1]", "value": "4–6%"}
    ]},
    {"molecule": "CCOC(=O)CCC(=O)P(=O)(OCC)OCC", "note": "[TESP, triethyl succinyl phosphonate]", "values": [
      {"measurement": "decrease of purity", "setting": "[1]", "value": "4–6%"}
    ]},
    {"molecule": "COC(=O)CCCCC(=O)P(=O)(OC)OC", "note": "[TMAP, trimethyl adipoyl phosphonate]", "values": [
      {"measurement": "compound decomposed", "setting": "[1]; [6]", "value": 90, "unit": "%"},
      {"measurement": "decrease of purity", "setting": "[1]", "value": "4–6%"}
    ]},
    {"molecule": "B1", "values": [
      {"measurement": "Km", "setting": "[2]", "value": "8 ± 1 µM and 7.7 ± 0.8 µM"}
    ]},
    {"molecule": "B2", "values": [
      {"measurement": "Km", "setting": "[3]", "value": "550 ± 70", "unit": "µM"},
      {"measurement": "Km", "setting": "[4]", "value": "450 ± 120", "unit": "µM"},
      {"measurement": "Km", "setting": "[5]; other: heart preparation", "value": "450 ± 60", "unit": "µM"},
      {"measurement": "Km", "setting": "[5]; other: liver preparation", "value": "270 ± 60", "unit": "µM"}
    ]}
  ]
}
